PMC6930555, “Design, Synthesis, and Structural Characterization of Novel Diazaphenothiazines with 1,2,3-Triazole Substituents as Promising Antiproliferative Agents” (Molecules, 2019)
Read-outs that look alike come from different tables or passages of the source.

How the values were obtained:
lung cancer A549 = test: WST-1 cell proliferation assay, A549; assay type: cell-based, human; details: A549, WST-1, 72 h, read-out: Anticancer Activity IC50 A549
Protocol: (§1) Encouraged by our previous promising results in the field of antiproliferative activity of dipyridothiazines as well as by the good anticancer activity of the 1,2,3-triazoles, we decided to combine the biological potentials of dipyridothiazines and triazole moieties, hoping to obtain compounds with better activity. The antiproliferative activity of all 20 new 10-substituted 1,2,3-triazole derivatives of dipyridothiazines was tested in vitro against cancer cell lines: glioblastoma SNB-19, colorectal carcinoma Caco-2, lung cancer A549, and breast cancer MDA-MB231 using the WST-1 assay. Normal human fibroblasts NHDF were used as a control.
(§2) All dipyridothiazines with 1,2,3-triazole substituents (1–4)b–f were evaluated for their anticancer activity using four cultured cell lines: SNB-19 (human glioblastoma, DSMZ—German Collection of Microorganisms and Cell Cultures, Braunschweig, Germany), Caco-2 (human colon adenocarcinoma, DSMZ—German Collection of Microorganisms and Cell Cultures, Braunschweig, Germany), A549 (human lung carcinoma, ATCC, Manassas, VA, USA) and MDA-MB231 (human breast adenocarcinoma, ATCC, Manassas, VA, USA), and NHDF (human dermal fibroblast cell line, ATCC, Manassas, VA, USA. The cultured cells were kept at 37 °C and 5% CO2. The cells were seeded (1 × 10^4 cells/well/100 µL DMEM supplemented with 10% FCS and streptomycin and penicillin) using 96-well plates (Corning). The cells were counted in a hemocytometer (Burker’s chamber) using a phase contrast Olympus IX50 microscope equipped with Sony SSC-DC58 AP camera and Olympus DP10 digital camera.
(§3) Antiproliferative effect of the obtained compounds on the cancer cells was determined using the cell proliferation reagent WST-1 assay (Roche Diagnostics, Mannheim, Germany). This assay is based on the viable cell’s ability to cleave the bright red-colored tetrazolium salt (2-(4-iodophenyl)-3-(4-nitrophenyl)-5-(2,4-disulfophenyl)-2H-tetrazolium, monosodium salt) to dark red soluble formazan by cellular enzymes. An increase in the amount of formazan dye formed correlates to the number of metabolically active cells in the culture. The formazan dye produced by metabolically active cells is quantified by a scanning ELISA reader by measuring the absorbance of the dye solution at appropriate wavelengths. The examined cells were exposed to the tested compounds for 72 h at various concentrations between 0.1 μg/mL and 100 μg/mL (prepared initially at concentration of 1 mg/mL in DMSO). The cells were incubated with WST-1 (10 μL) for 1 h and the absorbance of the samples against a background control was measured at 450 nm using a microplate reader with a reference wavelength at 600 nm. The results are expressed as means of at least two independent experiments performed in triplicate.

glioblastoma SNB-19 = test: WST-1 cell proliferation assay, SNB-19; assay type: cell-based, human; details: SNB-19, WST-1, 72 h, read-out: Anticancer Activity IC50 SNB-19
Protocol: as §1, §2, §3

breast cancer MDA-MB231 = test: WST-1 cell proliferation assay, MDA-MB231; assay type: cell-based, human; details: MDA-MB231, WST-1, 72 h, read-out: Anticancer Activity IC50 MDA-MB231
Protocol: as §1, §2, §3

[1] = tested on: normal human fibroblasts NHDF; test: WST-1 cytotoxicity assay, normal fibroblasts NHDF; assay type: cell-based; details: normal human fibroblasts NHDF, WST-1, 72 h
Protocol: as §1, §2, §3

[2] = tested on: colorectal carcinoma Caco-2; test: WST-1 cell proliferation assay, Caco-2; assay type: cell-based; details: Homo sapiens; Caco-2, WST-1, 72 h; read-out: Anticancer Activity IC50 Caco-2
Protocol: (§4) The antiproliferative activity of all 20 new 10-substituted 1,2,3-triazole derivatives of dipyridothiazines was tested in vitro against cancer cell lines: glioblastoma SNB-19, colorectal carcinoma Caco-2, lung cancer A549, and breast cancer MDA-MB231 using the WST-1 assay. Normal human fibroblasts NHDF were used as a control.
as §2, §3

[3] = tested on: SNB-19, Caco-2, A549 and MDA-MB231 cancer cell lines; test: WST-1 assay, summary over the cancer cell line panel; assay type: cell-based, human; details: for IC50: Homo sapiens
Protocol: as §4, §2, §3

[4] = span over SNB-19, Caco-2, A549, MDA-MB231, read-out: IC50 across all investigated cancer cell lines

## c1ccc(Cn2cc(CN3c4cccnc4Sc4cccnc43)nn2)cc1 [1b, 10-[(1-Benzyl-1H-1,2,3-triazol-4-yl)-methyl]-1,6-diazaphenothiazine]
Lung cancer A549; Homo sapiens
  IC50: > 100 µM
Glioblastoma SNB-19; Homo sapiens
  IC50: 69.2 µM
Breast cancer MDA-MB231; Homo sapiens, MDA-MB-231
  IC50: 13.7 µM
[1]
  IC50: > 100 µM
[2]
  IC50: 19.9 ± 2.71 µM

## Fc1ccc(Cn2cc(CN3c4cccnc4Sc4cccnc43)nn2)cc1 [1c, 10-[(1-(4-Fluorobenzyl)-1H-1,2,3-triazol-4-yl)methyl]-1,6-diazaphenothiazine]
Lung cancer A549; Homo sapiens
  IC50: 29.1 µM
Glioblastoma SNB-19; Homo sapiens
  IC50: 5.72 µM
Breast cancer MDA-MB231; Homo sapiens, MDA-MB-231
  IC50: 7.82 µM
[1]
  IC50: > 100 µM
[2]
  IC50: 8.1 µM
[3]; span over SNB-19 and MDA-MB231, read-out: IC50 in relation to SNB-19 and MDA-MB231 cell lines
  IC50: 5.72 to 7.82 µM

## N#Cc1ccc(Cn2cc(CN3c4cccnc4Sc4cccnc43)nn2)cc1 [1e, 10-[(1-(4-Cyanobenzyl)-1H-1,2,3-triazol-4-yl)methyl]-1,6-diazaphenothiazine]
Lung cancer A549; Homo sapiens
  IC50: 1.79 µM
Glioblastoma SNB-19; Homo sapiens
  IC50: 9.65 µM
Breast cancer MDA-MB231; Homo sapiens, MDA-MB-231
  IC50: 25.8 µM
[1]
  IC50: > 100 µM
[2]
  IC50: 79.7 µM

## c1ccc(SCn2cc(CN3c4cccnc4Sc4cccnc43)nn2)cc1 [1f, 10-[(1-Phenylthiomethyl-1H-1,2,3-triazolo-4-ylo)methyl]-1,6-diazaphenothiazine]
Lung cancer A549; Homo sapiens
  IC50: > 100 µM
Glioblastoma SNB-19; Homo sapiens
  IC50: > 100 µM
Breast cancer MDA-MB231; Homo sapiens, MDA-MB-231
  IC50: 68.7 µM
[1]
  IC50: > 100 µM
[2]
  IC50: > 100 µM

## c1ccc(Cn2cc(CN3c4cnccc4Sc4cccnc43)nn2)cc1 [2b, 10-[(1-Benzyl-1H-1,2,3-triazol-4-yl)-methyl]-1,8-diazaphenothiazine]
Lung cancer A549; Homo sapiens
  IC50: 77.4 µM
Glioblastoma SNB-19; Homo sapiens
  IC50: 41.9 µM
Breast cancer MDA-MB231; Homo sapiens, MDA-MB-231
  IC50: 56.3 µM
[1]
  IC50: > 100 µM
[2]
  IC50: > 100 µM

## Fc1ccc(Cn2cc(CN3c4cnccc4Sc4cccnc43)nn2)cc1 [2c, 10-[(1-(4-Fluorobenzyl)-1H-1,2,3-triazol-4-yl)methyl]-1,8-diazaphenothiazine]
Lung cancer A549; Homo sapiens
  IC50: 60.2 µM
Glioblastoma SNB-19; Homo sapiens
  IC50: 55.2 µM
Breast cancer MDA-MB231; Homo sapiens, MDA-MB-231
  IC50: 9.21 µM
[1]
  IC50: > 100 µM
[2]
  IC50: 43.6 µM

## Clc1ccc(Cn2cc(CN3c4cnccc4Sc4cccnc43)nn2)cc1 [2d, 10-[(1-(4-Chlorobenzyl)-1H-1,2,3-triazol-4-yl)methyl]-1,8-diazaphenothiazine]
Lung cancer A549; Homo sapiens
  IC50: 1.82 µM
Glioblastoma SNB-19; Homo sapiens
  IC50: 59.9 µM
Breast cancer MDA-MB231; Homo sapiens, MDA-MB-231
  IC50: 4.71 µM
[1]
  IC50: 43 µM
[2]
  IC50: 11.4 µM

## N#Cc1ccc(Cn2cc(CN3c4cnccc4Sc4cccnc43)nn2)cc1 [2e, 10-[(1-(4-Cyanobenzyl)-1H-1,2,3-triazol-4-yl)methyl]-1,8-diazaphenothiazine]
Lung cancer A549; Homo sapiens
  IC50: 63.8 µM
Glioblastoma SNB-19; Homo sapiens
  IC50: 10.6 µM
Breast cancer MDA-MB231; Homo sapiens, MDA-MB-231
  IC50: 12 µM
[1]
  IC50: > 100 µM
[2]
  IC50: 34.4 µM

## c1ccc(SCn2cc(CN3c4cnccc4Sc4cccnc43)nn2)cc1 [2f, 10-[(1-Phenylthiomethyl-1H-1,2,3-triazolo-4-ylo)methyl]-1,8-diazaphenothiazine]
Lung cancer A549; Homo sapiens
  IC50: 46.8 µM
Glioblastoma SNB-19; Homo sapiens
  IC50: 56.3 µM
Breast cancer MDA-MB231; Homo sapiens, MDA-MB-231
  IC50: 12 µM
[1]
  IC50: > 100 µM
[2]
  IC50: 32.5 µM

## c1ccc(Cn2cc(CN3c4ccncc4Sc4ccncc43)nn2)cc1 [3b, 10-[(1-Benzyl-1H-1,2,3-triazol-4-yl)-methyl]-2,7-diazaphenothiazine]
Lung cancer A549; Homo sapiens
  IC50: 0.26 µM
Glioblastoma SNB-19; Homo sapiens
  IC50: 2.04 µM
Breast cancer MDA-MB231; Homo sapiens, MDA-MB-231
  IC50: 0.77 µM
[1]
  IC50: 22.7 µM
[2]
  IC50: 0.26 µM
[3]; [4]
  IC50: 0.26 to 2.07 µM

## Fc1ccc(Cn2cc(CN3c4ccncc4Sc4ccncc43)nn2)cc1 [3c, 10-[(1-(4-Fluorobenzyl)-1H-1,2,3-triazol-4-yl)methyl]-2,7-diazaphenothiazine]
Lung cancer A549; Homo sapiens
  IC50: 27.2 µM
Glioblastoma SNB-19; Homo sapiens
  IC50: 57.9 µM
Breast cancer MDA-MB231; Homo sapiens, MDA-MB-231
  IC50: 25.7 µM
[1]
  IC50: 70.6 µM
[2]
  IC50: 29.9 µM

## Clc1ccc(Cn2cc(CN3c4ccncc4Sc4ccncc43)nn2)cc1 [3d, 10-[(1-(4-Chlorobenzyl)-1H-1,2,3-triazol-4-yl)methyl]-2,7-diazaphenothiazine]
Lung cancer A549; Homo sapiens
  IC50: 17.9 µM
Glioblastoma SNB-19; Homo sapiens
  IC50: 31.3 µM
Breast cancer MDA-MB231; Homo sapiens, MDA-MB-231
  IC50: 4.26 µM
[1]
  IC50: > 100 µM
[2]
  IC50: 33.1 µM

## N#Cc1ccc(Cn2cc(CN3c4ccncc4Sc4ccncc43)nn2)cc1 [3e, 10-[(1-(4-Cyanobenzyl)-1H-1,2,3-triazol-4-yl)methyl]-2,7-diazaphenothiazine]
Lung cancer A549; Homo sapiens
  IC50: 30.1 µM
Glioblastoma SNB-19; Homo sapiens
  IC50: 26.8 µM
Breast cancer MDA-MB231; Homo sapiens, MDA-MB-231
  IC50: 3.5 µM
[1]
  IC50: 49.5 µM
[2]
  IC50: 10 µM

## c1ccc(SCn2cc(CN3c4ccncc4Sc4ccncc43)nn2)cc1 [3f, 10-[(1-Phenylthiomethyl-1H-1,2,3-triazolo-4-ylo)methyl]-2,7-diazaphenothiazine]
Lung cancer A549; Homo sapiens
  IC50: 0.65 µM
Glioblastoma SNB-19; Homo sapiens
  IC50: 32.6 µM
Breast cancer MDA-MB231; Homo sapiens, MDA-MB-231
  IC50: 0.64 µM
[1]
  IC50: 52.9 µM
[2]
  IC50: 14.5 µM
[3]; four cancer cell lines
  selectivity among cancer cell lines (in words): acted selectively towards A549 and MDA-MB231 cell lines

## c1ccc(Cn2cc(CN3c4ccncc4Sc4ncccc43)nn2)cc1 [4b, 10-[(1-Benzyl-1H-1,2,3-triazol-4-yl)-methyl]-3,6-diazaphenothiazine]
Lung cancer A549; Homo sapiens
  IC50: 60.6 µM
Glioblastoma SNB-19; Homo sapiens
  IC50: 20.8 µM
Breast cancer MDA-MB231; Homo sapiens, MDA-MB-231
  IC50: 7.87 µM
[1]
  IC50: > 100 µM
[2]
  IC50: 57.9 µM

## Fc1ccc(Cn2cc(CN3c4ccncc4Sc4ncccc43)nn2)cc1 [4c, 10-[(1-(4-Fluorobenzyl)-1H-1,2,3-triazol-4-yl)methyl]-3,6-diazaphenothiazine]
Lung cancer A549; Homo sapiens
  IC50: 0.25 µM
Glioblastoma SNB-19; Homo sapiens
  IC50: 6.25 µM
Breast cancer MDA-MB231; Homo sapiens, MDA-MB-231
  IC50: 1.97 µM
[1]
  IC50: 2.85 µM
[2]
  IC50: 0.25 µM
[3]; [4]
  IC50: 0.25 to 6.25 µM

## Clc1ccc(Cn2cc(CN3c4ccncc4Sc4ncccc43)nn2)cc1 [4d, 10-[(1-(4-Chlorobenzyl)-1H-1,2,3-triazol-4-yl)methyl]-3,6-diazaphenothiazine]
Lung cancer A549; Homo sapiens
  IC50: 54 µM
Glioblastoma SNB-19; Homo sapiens
  IC50: 14.9 µM
Breast cancer MDA-MB231; Homo sapiens, MDA-MB-231
  IC50: 13.4 µM
[1]
  IC50: > 100 µM
[2]
  IC50: 42.1 µM

## N#Cc1ccc(Cn2cc(CN3c4ccncc4Sc4ncccc43)nn2)cc1 [4e, 10-[(1-(4-Cyanobenzyl)-1H-1,2,3-triazol-4-yl)methyl]-3,6-diazaphenothiazine]
Lung cancer A549; Homo sapiens
  IC50: 42.7 µM
Glioblastoma SNB-19; Homo sapiens
  IC50: 53.6 µM
Breast cancer MDA-MB231; Homo sapiens, MDA-MB-231
  IC50: 38.8 µM
[1]
  IC50: > 100 µM
[2]
  IC50: 74.3 µM

## c1ccc(SCn2cc(CN3c4ccncc4Sc4ncccc43)nn2)cc1 [4f, 10-[(1-Phenylthiomethyl-1H-1,2,3-triazolo-4-ylo)methyl]-3,6-diazaphenothiazine]
Lung cancer A549; Homo sapiens
  IC50: > 100 µM
Glioblastoma SNB-19; Homo sapiens
  IC50: 44.8 µM
Breast cancer MDA-MB231; Homo sapiens, MDA-MB-231
  IC50: 44.3 µM
[1]
  IC50: > 100 µM
[2]
  IC50: 67.5 µM

## N.N.[Cl][Pt][Cl] [Cisplatin, reference compound]
Lung cancer A549
  IC50: 0.6 µM
Glioblastoma SNB-19
  IC50: 3.73 µM
Breast cancer MDA-MB231
  IC50: 3.13 µM
[1]
  IC50: 63.9 µM
